This is an account of results in article PMC8457056, “Remodeling of the Fibrillation Pathway of α‐Synuclein by Interaction with Antimicrobial Peptide LL‐III” (Chemistry (Weinheim an Der Bergstrasse, Germany), 2021).

In the experiment the test system is α‐Syn. As to the kind of experiment: atomic force microscopy of α-Syn fibrils. It counts as biochemical, human. The settings on record: 20 μM α-Syn, dried on mica, 20 mM sodium acetate, pH 5.0, room temperature. As to the method: To verify inhibition of α‐Syn fibril formation upon addition of LL‐III, atomic force microscopy (AFM) experiments were carried out. To this end, a 20 μM solution of α‐Syn in the absence and in the presence of LL‐III was dried on a mica surface and AFM pictures were recorded. Under such conditions, liquid droplets could not be detected. In the absence of LL‐III, short fibril‐like structures were observed (Figure S3).
The lyophilized powders of the labeled and unlabeled LL-III peptide were purchased from GenScript, Germany.
The sequence of the LL-III peptide is NH2-VNWKKIL GKIIKVVK -CONH2. In th e labeled peptide, the fluorophore 6-carboxyfluorescein (FAM) was covalently attached to the N-terminus of the peptide. […]
The expression and purification of α-synuclein (α-Syn) was carried out as described before.[1,2] […] A single colony was picked and inoculated into 100 m l LB medium containing 150 μg/m l ampicillin and grown at 37°C with shaking at 250 rpm until the absorbance at 600 nm reached 0.8. […]
Phase-contrast light and fluorescence microscopy
The light and fluorescence microscopy experiments were performed using an Eclipse TE2000- U (Nikon Inc.) op-tical microscope with a Nikon Plan Fluor 20x objective (NA 0.45 WD 7.4) coupled to an TIS DMK 23UX249 camera. […] Fluorescence microscopy experiments were performed using 6-carboxyfluorescein- l abel ed LL- III (FAM-LL-III) exciting at 488 nm. […]

On to NH2-VNWKKIL GKIIKVVK -CONH2 [LL‐III], for which the “fibrils by AFM” value by setting is: (200 μM LL-III) “some fibrils of smaller size were still visible after drying”; (500 μM LL-III) “fibrillar structures could no longer be detected”.
